These results are taken from patent US20100068204A1, “4-ARYLOXYQUINOLIN-2(1H)-ONES AS MTOR KINASE AND PI3 KINASE INHIBITORS, FOR USE AS ANTI-CANCER AGENTS” (Wyeth, priority 2008, published 2010).

As a reminder, the IC50 is the concentration needed to halve the response being measured.

Some results are limits rather than exact numbers.

For experiment [1], the system named is MDA468 breast tumor cells. Nature of the experiment: In vitro cell growth assay (MTS), MDA468. The conditions noted are these: Homo sapiens, 72 h, three days after drug treatment. The class given is cell-based, human. An outline of the steps:
(§1)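 Tumor cells plated ~3000/well; inhibitors in DMSO added one day later (final DMSO 0.25%). After three days of treatment, viable cell density read by MTS conversion, absorbance at 490 nm. Effect expressed relative to untreated control growth.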

A further experiment addresses human TOR (FLAG-TOR) (Homo sapiens, UniProt P42345). In words: mTOR enzyme assay (DELFIA format, purified enzyme). The class given is biochemical. The conditions noted are these: 800 ng/ml FLAG-TOR, 100 μM ATP, 1.25 μM His6-S6K; read-out: mTOR Kinase IC50.
Experiment [2] relates to LNCap prostate tumor cells. Nature of the experiment: In vitro cell growth assay (MTS), LNCap. The class given is cell-based, human. To be noted: Homo sapiens, LNCaP, 72 h, three days after drug treatment. An outline of the steps: as §1
The next experiment concerns the target PI3Kα (Homo sapiens, UniProt P42336). Nature of the experiment: PI3Kα fluorescence polarization assay. The experiment is classed as biochemical. To be noted: 20 μM PIP2, 25 μM ATP. An outline of the steps: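 Kinase reaction in 20 mM HEPES pH 7.5, 2 mM MgCl2, 0.05% CHAPS with final 20 μM diC8-PIP2 and 25 μM ATP, 30-60 min at room temperature. Stopped with 10 nM TAMRA-labelled probe plus 2.5 uM GST-murine GRP; fluorescence polarization read after 90-110 minutes.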
A general note: In fluorescence polarisation assays a small probe gives low polarisation when free and higher when bound to something large.

Chain of PI3Kα (P42336 whole entry, species assumed): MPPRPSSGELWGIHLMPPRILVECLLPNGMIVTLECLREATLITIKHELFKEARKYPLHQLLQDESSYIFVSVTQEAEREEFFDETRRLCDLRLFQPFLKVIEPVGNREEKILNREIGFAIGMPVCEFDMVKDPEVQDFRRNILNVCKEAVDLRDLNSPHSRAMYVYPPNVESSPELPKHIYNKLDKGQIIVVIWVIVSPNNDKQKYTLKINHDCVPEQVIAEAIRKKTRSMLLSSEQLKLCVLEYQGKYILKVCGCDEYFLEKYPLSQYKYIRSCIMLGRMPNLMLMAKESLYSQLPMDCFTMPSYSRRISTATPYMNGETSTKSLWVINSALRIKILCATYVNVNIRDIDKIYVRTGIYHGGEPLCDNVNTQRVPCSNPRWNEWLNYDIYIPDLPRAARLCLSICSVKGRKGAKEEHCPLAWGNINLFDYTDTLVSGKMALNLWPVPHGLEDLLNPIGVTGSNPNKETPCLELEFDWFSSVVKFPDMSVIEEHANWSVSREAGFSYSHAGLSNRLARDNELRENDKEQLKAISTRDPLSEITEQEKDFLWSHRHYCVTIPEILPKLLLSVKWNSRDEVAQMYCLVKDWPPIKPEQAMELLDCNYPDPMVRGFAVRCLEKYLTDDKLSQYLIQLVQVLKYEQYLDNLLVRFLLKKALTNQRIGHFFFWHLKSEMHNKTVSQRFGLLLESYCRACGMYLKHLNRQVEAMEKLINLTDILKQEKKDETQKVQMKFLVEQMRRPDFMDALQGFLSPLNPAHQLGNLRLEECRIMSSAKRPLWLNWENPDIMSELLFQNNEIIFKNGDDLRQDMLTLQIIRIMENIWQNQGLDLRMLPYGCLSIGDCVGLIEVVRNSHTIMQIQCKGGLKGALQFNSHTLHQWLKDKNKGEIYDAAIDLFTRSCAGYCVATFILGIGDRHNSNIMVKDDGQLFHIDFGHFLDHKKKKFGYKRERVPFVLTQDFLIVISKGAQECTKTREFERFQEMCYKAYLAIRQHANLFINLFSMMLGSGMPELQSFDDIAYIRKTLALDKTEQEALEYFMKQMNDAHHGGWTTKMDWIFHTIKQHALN
Chain of PI3Kα (P27986 whole entry partner, species assumed): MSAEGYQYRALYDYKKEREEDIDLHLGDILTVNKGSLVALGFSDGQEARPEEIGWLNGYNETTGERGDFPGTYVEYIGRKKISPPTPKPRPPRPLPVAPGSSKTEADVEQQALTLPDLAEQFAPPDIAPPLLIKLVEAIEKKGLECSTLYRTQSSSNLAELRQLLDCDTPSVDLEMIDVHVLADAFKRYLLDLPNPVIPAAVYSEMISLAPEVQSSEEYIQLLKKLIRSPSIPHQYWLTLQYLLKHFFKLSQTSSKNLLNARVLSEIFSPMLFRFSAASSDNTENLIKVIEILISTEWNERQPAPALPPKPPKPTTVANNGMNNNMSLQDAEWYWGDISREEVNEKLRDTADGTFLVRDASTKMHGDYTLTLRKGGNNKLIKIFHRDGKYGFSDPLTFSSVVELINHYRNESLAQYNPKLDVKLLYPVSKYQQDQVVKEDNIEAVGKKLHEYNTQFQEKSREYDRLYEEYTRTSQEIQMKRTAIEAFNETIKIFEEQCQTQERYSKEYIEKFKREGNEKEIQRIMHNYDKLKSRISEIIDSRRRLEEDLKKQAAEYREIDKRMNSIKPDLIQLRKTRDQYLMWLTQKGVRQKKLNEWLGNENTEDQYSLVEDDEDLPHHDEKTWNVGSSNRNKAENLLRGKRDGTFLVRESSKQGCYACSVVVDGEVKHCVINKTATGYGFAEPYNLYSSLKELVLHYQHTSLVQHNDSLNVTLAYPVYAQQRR

As for `O=c1cc(Oc2ccccc2)c2cc(-c3cn[nH]c3)ccc2[nH]1`, the IC50 was over 60 µM in experiment [1], 19 µM at human TOR (FLAG-TOR), over 60 µM in experiment [2] and 0.375 µM against PI3Kα.
With `O=c1cc(Oc2ccc(C(F)(F)F)cc2)c2ccccc2[nH]1`, the IC50 in experiment [1] was over 60 µM; on human TOR (FLAG-TOR), over 20 µM; in experiment [2], over 60 µM; at PI3Kα it was 2.31 µM.
Turning to `CN1CCN(c2ccc(-c3cccc(Oc4cc(=O)[nH]c5ccccc45)c3)cn2)CC1`, the IC50 in experiment [1] is 9 µM; on human TOR (FLAG-TOR), 0.21 µM; in experiment [2], 4 µM; against PI3Kα, over 10 µM.
The like results for `CC(C)(C)OC(=O)n1ccc2cc(CNc3cccc(Oc4cc(=O)[nH]c5ccccc45)c3)cnc21` were, in that order, 60 µM, 4.5 µM, 11.5 µM and 11.8 µM.
On the same counts, the results for `O=c1cc(Oc2ccc(-c3cccnc3)cc2)c2ccccc2[nH]1` are 16.6 µM, 1.75 µM, 2.15 µM and 3.29 µM.
On to `CS(=O)(=O)Nc1cccc(-c2cccc(Oc3cc(=O)[nH]c4ccccc34)c2)c1`, for which the IC50 is 18 µM in experiment [1], 0.58 µM at human TOR (FLAG-TOR), 6.5 µM in experiment [2] and 3.55 µM at PI3Kα.
For `O=c1cc(Oc2cccc(-c3cnn(CCN4CCOCC4)c3)c2)c2ccccc2[nH]1`, the IC50 in experiment [1] was 10 µM; at human TOR (FLAG-TOR), 0.14 µM; in experiment [2], 2.2 µM; against PI3Kα, over 10 µM.
Turning to `O=c1cc(Oc2cccc(-c3ccc(NCCCl)cc3)c2)c2ccccc2[nH]1`, the IC50 in experiment [1] was 11 µM; on human TOR (FLAG-TOR) it was 0.44 µM; in experiment [2] it was 6.2 µM; against PI3Kα, over 10 µM.
On the same counts, the results for `O=c1cc(Oc2ccccc2)c2cc(Cl)ccc2[nH]1` are over 60 µM, 6.75 µM, 13 µM and 5.14 µM.
As for `O=c1cc(Oc2ccc(-c3ccncc3)cc2)c2ccccc2[nH]1`, the IC50 in experiment [1] was over 60 µM; on human TOR (FLAG-TOR), 0.24 µM; in experiment [2], 1.9 µM; against PI3Kα it was 4.88 µM.
`O=c1cc(Oc2ccccc2)c2ccccc2[nH]1`: the IC50 in experiment [1] amounted to 60 µM; on human TOR (FLAG-TOR) it was 0.37 µM; in experiment [2], 8.88 µM; on PI3Kα, 24.1 µM.
The like results for `O=c1cc(Oc2cccc(-c3cn[nH]c3)c2)c2ccccc2[nH]1` were, in that order, 2.9 µM, 0.3 µM, 8 µM and 3.9 µM.
On the same counts, the results for `Cc1ccccc1Oc1cc(=O)[nH]c2ccccc12` are over 60 µM, 2 µM, 8 µM and 7.91 µM.
On the same counts, the results for `CC(=O)Nc1ccc2[nH]c(=O)cc(Oc3ccccc3)c2c1` are over 60 µM, over 20 µM, over 60 µM and over 10 µM.
Turning to `O=c1cc(Oc2cccc(NCc3ccccn3)c2)c2ccccc2[nH]1`, the half-inhibitory concentration (IC50) was 12 µM in experiment [1], 0.15 µM on human TOR (FLAG-TOR), 5.8 µM in experiment [2] and 3.49 µM on PI3Kα.
On the same counts, the results for `CN1CCC(Nc2ccc(-c3cccc(Oc4cc(=O)[nH]c5ccccc45)c3)cc2)CC1` are 5 µM, 0.05 µM, 2.8 µM and 8 µM.
For `COc1ccccc1Oc1cc(=O)[nH]c2ccccc12`, the IC50 in experiment [1] is over 60 µM; at human TOR (FLAG-TOR) it was 9.1 µM; in experiment [2], over 60 µM; against PI3Kα, 4.68 µM.
For the compound `O=c1cc(Oc2ccccc2)c2ccc(Br)cc2[nH]1`, the IC50 in experiment [1] was over 60 µM; at human TOR (FLAG-TOR), over 20 µM; in experiment [2], over 60 µM; against PI3Kα, 5.39 µM.
`O=c1cc(Oc2ccccc2C(F)(F)F)c2ccccc2[nH]1`: the half-inhibitory concentration (IC50) is over 60 µM in experiment [1], 1.65 µM at human TOR (FLAG-TOR), over 60 µM in experiment [2] and 0.308 µM against PI3Kα.
For `CC(Nc1cccc(Oc2cc(=O)[nH]c3ccccc23)c1)c1cccnc1` (stereo not shown), the 50% inhibitory concentration (IC50) in experiment [1] came out at 11 µM; at human TOR (FLAG-TOR), 0.19 µM; in experiment [2], 3.3 µM; against PI3Kα, 3.58 µM.
The like results for `O=c1cc(Oc2cccc(-c3cccc(CN4CCOCC4)c3)c2)c2ccccc2[nH]1` were, in that order, 30 µM, 0.6 µM, 9.5 µM and 6.83 µM.
Consider `Cc1ccc(Oc2cc(=O)[nH]c3ccccc23)cc1`, for which the IC50 in experiment [1] was over 60 µM; at human TOR (FLAG-TOR), 1.15 µM; in experiment [2] it was 18 µM; against PI3Kα, 4.17 µM.
On the same counts, the results for `CN1CCN(CCNc2ccc(-c3cccc(Oc4cc(=O)[nH]c5ccccc45)c3)cc2)CC1` are 23 µM, 0.14 µM, 12 µM and over 10 µM.
Regarding `O=c1cc(Oc2cccc(NCc3ccc(-c4cccnc4)cc3)c2)c2ccccc2[nH]1`, the IC50 in experiment [1] is 8 µM; on human TOR (FLAG-TOR), 0.09 µM; in experiment [2] it was 3.3 µM; against PI3Kα, 7.98 µM.
The like results for `O=c1cc(Oc2cccc(-c3ccnc(N4CCNCC4)c3)c2)c2ccccc2[nH]1` were, in that order, 8.5 µM, 0.55 µM, 9 µM and 15 µM.
The like results for `CC(C)(C)OC(=O)N1CCN(c2ccc(-c3cccc(Oc4cc(=O)[nH]c5ccccc45)c3)cn2)CC1` were, in that order, 18 µM, 3.7 µM, over 60 µM and over 10 µM.
Take `O=c1cc(Oc2cccc(NCc3ccc(-c4cccc(CO)n4)cc3)c2)c2ccccc2[nH]1`: the half-maximal inhibitory concentration (IC50) came to 10 µM in experiment [1], 0.09 µM on human TOR (FLAG-TOR), 4.3 µM in experiment [2] and 3.92 µM against PI3Kα.
In the case of `Cn1cc(-c2ccc(Oc3cc(=O)[nH]c4ccccc34)cc2)cn1`, the IC50 in experiment [1] was over 60 µM; at human TOR (FLAG-TOR), 1.98 µM; in experiment [2], 1.3 µM; on PI3Kα, 2.28 µM.
For `O=c1cc(Oc2cccc(NCc3ccccc3N3CCOCC3)c2)c2ccccc2[nH]1`, the IC50 amounted to 24 µM in experiment [1], 0.33 µM at human TOR (FLAG-TOR), 9 µM in experiment [2] and 5.62 µM on PI3Kα.
As to `O=c1cc(Oc2cccc(C(F)(F)F)c2)c2ccccc2[nH]1`, the IC50 was over 60 µM in experiment [1], 1.35 µM at human TOR (FLAG-TOR), over 60 µM in experiment [2] and 8.69 µM at PI3Kα.
`CC(C)OC(=O)Nc1ccc(-c2cccc(Oc3cc(=O)[nH]c4ccccc34)c2)cc1`: the IC50 in experiment [1] was 5 µM; at human TOR (FLAG-TOR), 1.35 µM; in experiment [2] it was 4 µM; at PI3Kα it was over 10 µM.
As to `CC(=O)c1ccc(Oc2cc(=O)[nH]c3ccccc23)cc1`, the half-inhibitory concentration (IC50) in experiment [1] is over 60 µM; at human TOR (FLAG-TOR) it was 1.85 µM; in experiment [2], 13 µM; on PI3Kα, 1.66 µM.
As for `Cn1ccc2cc(CNc3cccc(Oc4cc(=O)[nH]c5ccccc45)c3)ccc21`, the concentration for half-maximal inhibition (IC50) was determined as 1.2 µM in experiment [1], 0.35 µM on human TOR (FLAG-TOR), 1 µM in experiment [2] and 1.42 µM at PI3Kα.
The like results for `O=c1cc(Oc2cccc(NCC3CCN(Cc4ccccc4)CC3)c2)c2ccccc2[nH]1` were, in that order, 4.1 µM, 0.18 µM, 3 µM and 9.54 µM.
On the same counts, the results for `O=c1cc(Oc2cccc(-c3ccco3)c2)c2ccccc2[nH]1` are 0.7 µM, 0.4 µM, over 60 µM and over 10 µM.
Turning to `O=c1cc(Oc2ccc3c(c2)OCO3)c2ccccc2[nH]1`, the half-maximal inhibitory concentration (IC50) in experiment [1] is over 60 µM; on human TOR (FLAG-TOR), 1.5 µM; in experiment [2], over 60 µM; on PI3Kα it was over 10 µM.
In the case of `O=c1cc(Oc2ccc(I)cc2)c2ccccc2[nH]1`, the IC50 in experiment [1] is 18 µM; at human TOR (FLAG-TOR), 0.74 µM; in experiment [2], over 60 µM; against PI3Kα it was over 10 µM.
`Nc1ccncc1CNc1cccc(Oc2cc(=O)[nH]c3ccccc23)c1`: the 50% inhibitory concentration (IC50) in experiment [1] is 11.5 µM; on human TOR (FLAG-TOR), 0.15 µM; in experiment [2], 8 µM; at PI3Kα, over 10 µM.
The like results for `Nc1ccc2[nH]c(=O)cc(Oc3ccccc3)c2c1` were, in that order, over 60 µM, over 20 µM, over 60 µM and 2.57 µM.
The like results for `O=c1cc(Oc2ccc(OC(F)(F)F)cc2)c2ccccc2[nH]1` were, in that order, over 60 µM, over 20 µM, over 60 µM and over 10 µM.
For the compound `COCCNC(=O)Nc1ccc(-c2cccc(Oc3cc(=O)[nH]c4ccccc34)c2)cc1`, the IC50 in experiment [1] was 60 µM; at human TOR (FLAG-TOR), 0.26 µM; in experiment [2] it was over 60 µM; at PI3Kα, over 10 µM.
As to `Nc1ccc(-c2ccc(Oc3cc(=O)[nH]c4ccccc34)cc2)cc1`, the half-inhibitory concentration (IC50) in experiment [1] was 60 µM; at human TOR (FLAG-TOR), over 20 µM; in experiment [2], 2 µM; at PI3Kα, 0.778 µM.
Take `O=c1cc(Oc2cccc(-c3ccc(NC4CCNCC4)cc3)c2)c2ccccc2[nH]1`: the IC50 in experiment [1] is 3.8 µM; at human TOR (FLAG-TOR) it was 0.09 µM; in experiment [2], 2.3 µM; against PI3Kα it was over 10 µM.
